From USRE50082E1, “(5,6-dihydro)pyrimido[4,5-e]indolizines” (NETHERLANDS TRANSLATIONAL RESEARCH CENTER B.V., priority 2014, dated 2024)

System: MOLT-4 cancer cell line
Assay: Cell proliferation assay, MOLT-4 cancer cell line (ATPlite);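 further: luminescence read-out, percent growth versus compound-free DMSO wells as maximum growth, start-of-incubation signal separating growth from cell death, IC50 from logistic curve fit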
Type: cell-based
Details: Homo sapiens, MOLT-4; 72 hours incubation, ATPlite 1Step; read-out: IC50 MOLT-4 cell proliferation

Compound | IC50 [nM]
CCc1cccc(C)c1NC(=O)c1ccn2c1CCc1cnc(Nc3ccc(OC4CCN(C)CC4)cc3OC)nc1-2 [Example 40, N-(2-ethyl-6-methyl-phenyl)-2-[2-methoxy-4-[(1-methyl-4-piperidyl)oxy]anilino]-5,6-dihydropyrimido[4,5-e]indolizine-7-carboxamide] | < 50
CCc1cccc(CC)c1NC(=O)c1ccn2c1CCc1cnc(Nc3ccc(OC4CCN(C)C4)cc3OC)nc1-2 (centres unmarked) [Example 59, N-(2,6-diethylphenyl)-2-[2-methoxy-4-(1-methylpyrrolidin-3-yl)oxy-anilino]-5,6-dihydropyrimido[4,5-e]indolizine-7-carboxamide] | < 50
CCOc1cc(C(=O)NC2CCN(C)CC2)ccc1Nc1ncc2c(n1)-n1ccc(C(=O)Nc3c(C)cccc3CC)c1CC2 [Example 14, 2-[2-Ethoxy-4-[(1-methyl-4-piperidyl)carbamoyl]anilino]-N-(2-ethyl-6-methyl-phenyl)-5,6-dihydropyrimido[4,5-e]indolizine-7-carboxamide] | 50 to 150
Cc1cccc(C)c1NC(=O)c1ccn2c1CCc1cnc(Nc3ccc(C(=O)NC4CCN(C)CC4)cc3F)nc1-2 [Example 7, N-(2,6-dimethylphenyl)-2-[2-fluoro-4-[(1-methyl-4-piperidyl)carbamoyl]anilino]-5,6-dihydropyrimido[4,5-e]indolizine-7-carboxamide] | 50 to 150
CCc1cccc(C)c1NC(=O)c1ccn2c1CCc1cnc(Nc3ccc(N4CCN(C)CC4)cc3)nc1-2 [Example 4, N-(2-ethyl-6-methyl-phenyl)-2-[4-(4-methylpiperazin-1-yl)anilino]-5,6-dihydropyrimido[4,5-e]indolizine-7-carboxamide] | < 50
COc1cc(N2CCN(C)CC2)ccc1Nc1ncc2c(n1)-n1ccc(C(=O)Nc3c(C)cccc3F)c1CC2 [Example 24, N-(2-fluoro-6-methyl-phenyl)-2-[2-methoxy-4-(4-methylpiperazin-1-yl)anilino]-5,6-dihydropyrimido[4,5-e]indolizine-7-carboxamide] | 50 to 150
CCc1nn(CCOC)c(CC)c1NC(=O)c1ccn2c1CCc1cnc(Nc3ccc(N4CCNCC4)cc3OC)nc1-2 [Example 19, N-[3,5-diethyl-1-(2-methoxyethyl)pyrazol-4-yl]-2-(2-methoxy-4-piperazin-1-yl-anilino)-5,6-dihydropyrimido[4,5-e]indolizine-7-carboxamide] | < 50
[2H]C([2H])([2H])Oc1cc(N2CCN(C)CC2)ccc1Nc1ncc2c(n1)-n1ccc(C(=O)Nc3c(CC)cccc3CC)c1CC2 [Example 99, N-(2,6-diethylphenyl)-2-[4-(4-methylpiperazin-1-yl)-2-(trideuteriomethoxy)anilino]-5,6-dihydropyrimido[4,5-e]indolizine-7-carboxamide] | < 50
COc1cc(N2CCN(C)CC2)ccc1Nc1ncc2c(n1)-n1ccc(C(=O)Nc3c(C)cc(C)cc3C)c1CC2 [Example 22, 2-[2-Methoxy-4-(4-methylpiperazin-1-yl)anilino]-N-(2,4,6-trimethylphenyl)-5,6-dihydropyrimido[4,5-e]indolizine-7-carboxamide] | < 50
COc1cc(N2CCNCC2)ccc1Nc1ncc2c(n1)-n1ccc(C(=O)Nc3c(C)cccc3C)c1CC2 [Example 17, N-(2,6-dimethylphenyl)-2-(2-methoxy-4-piperazin-1-yl-anilino)-5,6-dihydropyrimido[4,5-e]indolizine-7-carboxamide] | < 50
Cc1cc(N2CCN(C)CC2)ccc1Nc1ncc2c(n1)-n1ccc(C(=O)Nc3c(C)cccc3C)c1CC2 [Example 63, N-(2,6-dimethylphenyl)-2-[2-methyl-4-(4-methylpiperazin-1-yl)anilino]-5,6-dihydropyrimido[4,5-e]indolizine-7-carboxamide] | < 50
COc1cc(OC2CCN(C)CC2)ccc1Nc1ncc2ccc3c(C(=O)Nc4c(C)cccc4C)ccn3c2n1 [Example 62, N-(2,6-dimethylphenyl)-2-[2-methoxy-4-[(1-methyl-4-piperidyl)oxy]anilino]pyrimido[4,5-e]indolizine-7-carboxamide] | < 50
COc1cc(N2CCN(C)CC2)ccc1Nc1ncc2c(n1)-n1ccc(C(=O)Nc3c(C)n[nH]c3C)c1CC2 [Example 27, N-(3,5-dimethyl-1H-pyrazol-4-yl)-2-[2-methoxy-4-(4-methylpiperazin-1-yl)anilino]-5,6-dihydropyrimido[4,5-e]indolizine-7-carboxamide] | 50 to 150
COc1cc(OC2CCN(C)CC2)ccc1Nc1ncc2c(n1)-n1ccc(C(=O)Nc3c(C)cccc3C)c1CC2 [Example 39, N-(2,6-dimethylphenyl)-2-[2-methoxy-4-[(1-methyl-4-piperidyl)oxy]anilino]-5,6-dihydropyrimido[4,5-e]indolizine-7-carboxamide] | < 50

Second part, the molecule after the results:

IC50 [nM] | Compound
< 50 | COc1cc(OC2CCN(C)C2)ccc1Nc1ncc2c(n1)-n1ccc(C(=O)Nc3c(C)cccc3C)c1CC2 (centres unmarked) [Example 84, N-(2,6-dimethylphenyl)-2-[2-methoxy-4-(1-methylpyrrolidin-3-yl)oxy-anilino]-5,6-dihydropyrimido[4,5-e]indolizine-7-carboxamide]
< 50 | CCc1cccc(CC)c1NC(=O)c1ccn2c1CCc1cnc(Nc3ccc(N(C)CCCN(C)C)cc3OC)nc1-2 [Example 134, N-(2,6-diethylphenyl)-2-[4-[3-(dimethylamino)propyl-methyl-amino]-2-methoxy-anilino]-5,6-dihydropyrimido[4,5-e]indolizine-7-carboxamide]
< 50 | COCCNC(=O)c1ccc(Nc2ncc3c(n2)-n2ccc(C(=O)Nc4c(C)cccc4C)c2CC3)c(OC)c1 [Example 127, N-(2,6-dimethylphenyl)-2-[2-methoxy-4-(2-methoxyethylcarbamoyl)anilino]-5,6-dihydropyrimido[4,5-e]indolizine-7-carboxamide]
< 50 | COc1cc(C(=O)NC2CC2)ccc1Nc1ncc2c(n1)-n1ccc(C(=O)Nc3c(C)cccc3C)c1CC2 [Example 126, 2-[4-(cyclopropylcarbamoyl)-2-methoxy-anilino]-N-(2,6-dimethylphenyl)-5,6-dihydropyrimido[4,5-e]indolizine-7-carboxamide]
< 50 | Cc1cccc(Cl)c1NC(=O)c1ccn2c1CCc1cnc(Nc3ccc(N4CCN(C)CC4)cc3OC(F)F)nc1-2 [Example 86, N-(2-chloro-6-methyl-phenyl)-2-[2-(difluoromethoxy)-4-(4-methylpiperazin-1-yl)anilino]-5,6-dihydropyrimido[4,5-e]indolizine-7-carboxamide]
< 50 | CCc1cccc(CC)c1NC(=O)c1ccn2c1CCc1cnc(Nc3ccc(N4CCN(C)CC4)cc3C)nc1-2 [Example 67, N-(2,6-diethylphenyl)-2-[2-methyl-4-(4-methylpiperazin-1-yl)anilino]-5,6-dihydropyrimido[4,5-e]indolizine-7-carboxamide]
< 50 | CCc1n[nH]c(CC)c1NC(=O)c1ccn2c1ccc1cnc(Nc3ccc(N4CCNCC4)cc3OC)nc12 [Example 97, N-(3,5-diethyl-1H-pyrazol-4-yl)-2-(2-methoxy-4-piperazin-1-yl-anilino)pyrimido[4,5-e]indolizine-7-carboxamide]
< 50 | CCc1nn(CCOC)c(CC)c1NC(=O)c1ccn2c1CCc1cnc(Nc3ccc(N4CCN(C)CC4)cc3OC)nc1-2 [Example 109, N-[3,5-diethyl-1-(2-methoxyethyl)pyrazol-4-yl]-2-[2-methoxy-4-(4-methylpiperazin-1-yl)anilino]-5,6-dihydropyrimido[4,5-e]indolizine-7-carboxamide]
< 50 | COc1cc(N2CCN(C(=O)C3(C)CNC3)CC2)ccc1Nc1ncc2c(n1)-n1ccc(C(=O)Nc3c(C)cccc3C)c1CC2 [Example 130, N-(2,6-dimethylphenyl)-2-[2-methoxy-4-[4-(3-methylazetidine-3-carbonyl)piperazin-1-yl]anilino]-5,6-dihydropyrimido[4,5-e]indolizine-7-carboxamide]
< 50 | COc1cc(C(=O)N[C@@H]2CCNC[C@@H]2OC)ccc1Nc1ncc2c(n1)-n1ccc(C(=O)Nc3c(C)cccc3C)c1CC2 [Example 117, N-(2,6-dimethylphenyl)-2-[2-methoxy-4-[[(3S,4R)-3-methoxy-4-piperidyl]carbamoyl]anilino]-5,6-dihydropyrimido[4,5-e]indolizine-7-carboxamide]
50 to 150 | COCCn1nc(C)c(NC(=O)c2ccn3c2CCc2cnc(Nc4ccc(N5CCN(C(=O)C6CC(F)C6)CC5)cc4OC)nc2-3)c1C (centres unmarked) [Example 132, 2-[4-[4-(3-Fluorocyclobutanecarbonyl)piperazin-1-yl]-2-methoxy-anilino]-N-[1-(2-methoxyethyl)-3,5-dimethyl-pyrazol-4-yl]-5,6-dihydropyrimido[4,5-e]indolizine-7-carboxamide]
< 50 | CCc1cccc(C)c1NC(=O)c1ccn2c1CCc1cnc(Nc3ccc(N4CCN(C)CC4)cc3OC)nc1-2 [Example 72, N-(2-ethyl-6-methyl-phenyl)-2-[2-methoxy-4-(4-methylpiperazin-1-yl)anilino]-5,6-dihydropyrimido[4,5-e]indolizine-7-carboxamide]
50 to 150 | COCCn1nc(C)c(NC(=O)c2ccn3c2CCc2cnc(Nc4ccc(N5CCN(C(C)=O)CC5)cc4OC)nc2-3)c1C [Example 131, 2-[4-(4-Acetylpiperazin-1-yl)-2-methoxy-anilino]-N-[1-(2-methoxyethyl)-3,5-dimethyl-pyrazol-4-yl]-5,6-dihydropyrimido[4,5-e]indolizine-7-carboxamide]
< 50 | Cc1cc(N2CCN(C)CC2)ccc1Nc1ncc2c(n1)-n1ccc(C(=O)Nc3c(Cl)cccc3Cl)c1CC2 [Example 66, N-(2,6-dichlorophenyl)-2-[2-methyl-4-(4-methylpiperazin-1-yl)anilino]-5,6-dihydropyrimido[4,5-e]indolizine-7-carboxamide]
< 50 | CCc1cccc(CC)c1NC(=O)c1ccn2c1CCc1cnc(Nc3cnc(N4CCN(C)CC4)nc3OC)nc1-2 [Example 107, N-(2,6-diethylphenyl)-2-[[4-methoxy-2-(4-methylpiperazin-1-yl)pyrimidin-5-yl]amino]-5,6-dihydropyrimido[4,5-e]indolizine-7-carboxamide]
